{"source": "paper PMC3573960", "about": "(Molecular Neurodegeneration, 2012)", "key": {"[1]": {"system": "γ-secretase", "test": "APP CTF accumulation in H4-APP751 cell lysates (Western blot)", "format": "cell-based, human", "conditions": "H4-APP751 cells, 16 h", "from_the_text": "Cells were lysed in situ and the resulting lysate cleared of nuclei by centrifugation, as described elsewhere. Samples were fractionated by SDS-PAGE on a 12% NuPage gel (Invitrogen), transferred to a nitrocellulose membrane, and immunoblotted with an anti-APP-CTF antibody (Sigma-Aldrich)."}, "[2]": {"system": "γ-secretase (EphA4)", "test": "EphA4 CTF accumulation in rat primary neocortical cultures (Western blot)", "conditions": "24 h, as low as 100 nM", "quoted_text": "Protein concentration of the lysate was determined by the BCA method, and 30 μg of total protein were loaded on a 10% Bis-Tris gel (Invitrogen). EphA4 CTF was visualized using an anti-EphA4-CTF antibody (Abnova, Walnut, CA) and an IRDye800CW® secondary antibody (Rockland Immunochemicals, Inc., Gilbertsville, PA). Detection was performed using an Odyssey scanner (LiCor Biosciences) and blots quantified using ImageJ software (available at http://rsbweb.nih.gov/ij)."}, "[3]": {"system": "AD patients", "design": "method as in PMID 18695053, PMID 21222550, PMID 22323718", "conditions": "cited from earlier work"}, "[4]": {"system": "Aβ42", "design": "method as in PMID 15304503", "conditions": "cited from earlier work"}, "[5]": {"system": "Aph1AL containing γ-secretase complexes", "test": "Cell-free AICD production from APP β-CTF (Western blot)", "format": "biochemical, murine", "conditions": "10 μM", "experimental": "DAPT was used as a reference positive control for the assay. For each assay condition, a 5-μL microsomal fraction, containing 1% CHAPSO (3-[(3-cholamidopropyl)dimethylammonio]-2-hydroxy-1-propanesulfonate) from murine embryonic fibroblasts (MEF) lacking the Aph-1A, Aph-1B, and Aph-1C genes (triple knock out) and rescued with Aph-1AL, was prepared in a reaction mixture of 5 μL substrate (recombinant APP β-CTF 3-Flag-tagged) at 0.8 μM, 0.0125% phosphatidylethanolamine, 0.1%, phosphatidylcholine, 0.05% sphingomyelin, and 8.9 μL PIPES (piperazine-N,N′-bis[−ethanesulfonic acid]) buffer. […] For detection of AICD, one-half of the reaction mixture was purified by a methanol-chloroform extraction in order to remove lipids and hydrophobic proteins (e.g., APP β-CTF). This purified fraction was further analyzed by SDS-PAGE and Western blotting. AICD was detected with an ANTI-FLAG® antibody (Sigma-Aldrich). The other half of the reaction mixture was used to analyze the levels of Aβ1-40 and Aβ1-42 by AlphaLisa (Perkin Elmer, Waltham, MA)."}, "[6]": {"system": "Tg2576 mice", "design": "method as in PMID 16192379", "conditions": "100 mg/kg p.o., 3 h before training; cited from earlier work"}, "[7]": {"system": "Tg2576 mice", "design": "method as in PMID 10908610, PMID 12930788", "conditions": "diet of 375 ppm for 4–6 months; cited from earlier work"}}, "data": [{"smiles": "C[C@H](NC(=O)[C@@H](O)c1cc(F)cc(F)c1)C(=O)N[C@@H]1C(=O)N(C)c2ccccc2-c2ccccc21", "note": "[LY-411,575, reference compound]", "values": [{"measurement": "Full length APP", "setting": "[1]; 1 nM to 10 μM", "result": "not altered"}, {"measurement": "accumulation of APP α- or β-CTFs", "setting": "[1]; concentration as low as 1 nM", "result": "led to their accumulation"}, {"measurement": "EphA4 CTF accumulation", "setting": "[2]", "result": "led to EphA4 CTF accumulation"}]}, {"smiles": "CC(C)[C@H](O)C(=O)N[C@@H](C)C(=O)N[C@@H]1C(=O)N(C)CCc2ccccc21", "note": "[Semegacestat]", "values": [{"measurement": "toxicities in clinical trials in AD", "setting": "[3]", "result": "drug-related rashes, lightening of hair color, skin cancer, and more importantly, worsening of cognition and the ability to perform activities of daily living"}]}, {"smiles": "C[C@@H](C(=O)O)c1ccc(-c2ccccc2)c(F)c1", "note": "[Flurizan™]", "values": [{"measurement": "IC50", "setting": "[4]", "result": "> 300", "unit": "µM"}]}, {"smiles": "C[C@H](NC(=O)Cc1cc(F)cc(F)c1)C(=O)N[C@H](C(=O)OC(C)(C)C)c1ccccc1", "note": "[DAPT, N-(N-(3,5-difluorophenacetyl)-L-alanyl)-S-phenylglycine t-butyl ester, reference compound]", "values": [{"measurement": "production of AICD from APP β-CTF", "setting": "[5]", "result": "almost completely abolished"}, {"measurement": "CFC cognitive deficit", "setting": "[6]", "result": "rapidly improved the CFC cognitive deficit"}]}, {"smiles": "CC(C)Cc1ccc(C(C)C(=O)O)cc1", "note": "(centres unmarked) [ibuprofen]", "values": [{"measurement": "amyloid plaque load and inflammatory mediators", "setting": "[7]", "result": "marked decrease"}]}]}
